From patent publication US20240067660A1, “MACROCYCLIC SPIROCYCLE DERIVATIVES AS MCL-1 INHIBITORS” (Janssen Pharmaceutica NV, priority 2019, published 2024)
Like-named read-outs stand apart in the source and are kept apart here.

Key:
[1] = test system: MOLP-8 human multiple myeloma cell line; assay: Caspase-Glo 3/7 assay in MOLP-8 cells; type: cell-based; settings: Caspase-Glo 3/7, 2 hours incubation, averaged over all runs on all batches, read-out: MOLP8 AC50
Text: MCL-1 is a regulator of apoptosis and is highly over-expressed in tumor cells that escape cell death. The assay evaluates the cellular potency of small-molecule compounds targeting regulators of the apoptosis pathway, primarily MCL-1, Bfl-1, Bcl-2, and other proteins of the Bcl-2 family. Protein-protein inhibitors disrupting the interaction of anti-apoptotic regulators with BH3-domain proteins initiate apoptosis.
The Caspase-Glo® 3/7 Assay is a luminescent assay that measures caspase-3 and -7 activities in purified enzyme preparations or cultures of adherent or suspension cells. The assay provides a proluminescent caspase-3/7 substrate, which contains the tetrapeptide sequence DEVD. This substrate is cleaved to release aminoluciferin, a substrate of luciferase used in the production of light. Addition of the single Caspase-Glo® 3/7 Reagent in an “add-mix-measure” format results in cell lysis, followed by caspase cleavage of the substrate and generation of a “glow-type” luminescent signal.
This assay uses the MOLP-8 human multiple myeloma cell line, which is sensitive to MCL-1 inhibition.
Cell cultures were maintained between 0.2 and 2.0×10^6 cells/mL. The cells were harvested by collection in 50 mL conical tubes. The cells were then pelleted at 500 g for 5 mins before removing supernatant and resuspension in fresh pre-warmed culture medium. The cells were counted and diluted as needed.
The assay reagent was prepared by transferring the buffer solution to the substrate vial and mixing. The solution may be stored for up to 1 week at 4° C. with negligible loss of signal.
Compounds were delivered in assay-ready plates (Proxiplate) and stored at −20° C. Assays always include 1 reference compound plate containing reference compounds. The plates were spotted with 40 nL of compounds (0.5% DMSO final in cells; serial dilution; 30 μM highest conc. 1/3 dilution, 10 doses, duplicates). The compounds were used at room temperature and 4 μL of pre-warmed media was added to all wells except column 2 and 23. The negative control was prepared by adding 1% DMSO in media. The positive control was prepared by adding the appropriate positive control compound in final concentration of 60 μM in media. The plate was prepared by adding 4 μL negative control to column 23, 4 μL positive control to column 2 and 4 μL cell suspension to all wells in the plate. The plate with cells was then incubated at 37° C. for 2 hours. The assay signal reagent is the Caspase-Glo solution described above, and 8 μL was added to all wells. The plates were then sealed and measured after 30 minutes.
The activity of a test compound was calculated as percent change in apoptosis induction as follows: […]

[2] = molecular target: Myeloid Cell Leukemia 1(Mcl-1) (Homo sapiens (Human), UniProt Q07820); assay: Terbium labeled Mcl-1 HTRF binding assay with Cy5-labeled BIM BH3 peptide; settings: obtained after recalibration of the equipment; averaged values over several runs
Sequence of Myeloid Cell Leukemia 1(Mcl-1) (Q07820 whole entry): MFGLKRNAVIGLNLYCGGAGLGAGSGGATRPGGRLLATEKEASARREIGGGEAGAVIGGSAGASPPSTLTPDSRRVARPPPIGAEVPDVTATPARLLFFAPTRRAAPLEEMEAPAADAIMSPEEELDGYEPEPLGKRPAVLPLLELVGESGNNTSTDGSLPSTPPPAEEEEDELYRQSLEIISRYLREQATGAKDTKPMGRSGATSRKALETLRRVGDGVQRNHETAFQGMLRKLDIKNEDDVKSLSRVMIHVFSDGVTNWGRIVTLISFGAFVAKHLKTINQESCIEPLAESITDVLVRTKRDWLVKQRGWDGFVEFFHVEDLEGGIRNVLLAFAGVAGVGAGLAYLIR
Method: Terbium labeled Myeloid Cell Leukemia 1(Mcl-1) homogeneous time-resolved fluorescence (HTRF) binding assay utilizing the BIM BH3 peptide (H2N-(C/Cy5Mal) WIAQELRRIGDEFN-OH) as the binding partner for Mcl-1.
This assay evaluated inhibition of the BH3 domain: Mcl-1 interaction by measuring the displacement of Cy5-labeled BIM BH3 peptide (H2N—(C/Cy5Mal) WIAQELRRIGDEFN-OH) in the HTRF assay format.
The following assay and stock buffers were prepared for use in the assay: (a) Stock buffer: 10 mM Tris-HCl, pH=7.5+150 mM NaCl, filtered, sterilized, and stored at 4° C.; and (b) 1× assay buffer, where the following ingredients were added fresh to stock buffer: 2 mM dithiothreitol (DTT), 0.0025% Tween-20, 0.1 mg/mL bovine serum albumin (BSA). The 1×Tb-Mcl-1+Cy5 Bim peptide solution was prepared by diluting the protein stock solution using the 1× assay buffer (b) to 25 pM Tb-Mcl-1 and 8 nM Cy5 Bim peptide.
Using the Acoustic ECHO, 100 nL of 100× test compound(s) were dispensed into individual wells of a white 384-well Perkin Elmer Proxiplate, for a final compound concentration of lx and final DMSO concentration of 1%. Inhibitor control and neutral control (NC, 100 nL of 100% DMSO) were stamped into columns 23 and 24 of assay plate. Into each well of the plate was then dispensed 10 μL of the 1×Tb-Mcl-1+Cy5 Bim peptide solution. The plate was centrifuged with a cover plate at 1000 rpm for 1 minute, then incubated for 60 minutes at room temperature with plates covered.
The TR-FRET signal was read on an BMG PHERAStar FSX MicroPlate Reader at room temperature using the HTRF optic module (HTRF: excitation: 337 nm, light source: laser, emission A: 665 nm, emission B: 620 nm, integration start: 60 μs, integration time: […]).
The BMG PHERAStar FSX MicroPlate Reader was used to measure fluorescence intensity at two emission wavelengths—665 nm and 620 nm—and report relative fluorescence units (RFU) for both emissions, as well as a ratio of the emissions (665 nm/620 nm)*10,000. The RFU values were normalized to percent inhibition as follows:
% inhibition=((NC−IC)−(compound−IC))/(NC−IC))*100
where IC (inhibitor control, low signal)=mean signal of 1×Tb-MCl-1+Cy5 Bim peptide+inhibitor control or 100% inhibition of Mcl-1; NC (neutral control, high signal)=mean signal 1×Tb-MCl-1+Cy5 Bim peptide with DMSO only or 0% inhibition An 11-point dose response curve was generated to determine IC50 values (using GenData) based on the following equation:
Y=Bottom+(Top−Bottom)/(1+10^((IogIC50−X)*HillSlope))
where Y=% inhibition in the presence of X inhibitor concentration; Top=100% inhibition derived from the IC (mean signal of Mcl-1+inhibitor control); Bottom=0% inhibition derived from the NC (mean signal of Mcl-1+DMSO); Hillslope=Hill coefficient; and IC50=concentration of compound with 50% inhibition in relation to top/neutral control (NC).
In this assay [L]=8 nM and Kd=10 nM

Row | SMILES | AC50 ([1]; Homo sapiens, MOLP-8, 2 h) [nM] | Ki [2] [nM] | AC50 [1] [nM]
1 | C[C@@H]1[C@@H](C)C/C=C(\F)[C@H](CN2CCN3CCOC[C@@H]3C2)N2CC[C@H]2CN2C[C@@]3(CCCc4cc(Cl)ccc43)COc3ccc(cc32)C(=O)NS1(=O)=O [Compound 28] | 120 | 0.09 | 
2 | COCCOCC1(CO)/C(F)=C/C[C@H](C)[C@@H](C)S(=O)(=O)NC(=O)c2ccc3c(c2)N(C[C@@H]2CCN21)C[C@@]1(CCCc2cc(Cl)ccc21)CO3 (single isomer, unassigned) [Compound 40] |  | 0.16 | 194
3 | COCC1(CO)/C(F)=C/C[C@H](C)[C@@H](C)S(=O)(=O)NC(=O)c2ccc3c(c2)N(C[C@@H]2CCN21)C[C@@]1(CCCc2cc(Cl)ccc21)CO3 (single isomer, unassigned) [Compound 39] |  | 1.84 | 630
4 | C[C@@H]1[C@@H](C)C/C=C(\F)C(CO)(CO)N2CC[C@H]2CN2C[C@@]3(CCCc4cc(Cl)ccc43)COc3ccc(cc32)C(=O)NS1(=O)=O [Compound 36] | 2390 | 0.23 | 
5 | COCC1(COC)/C(F)=C/C[C@H](C)[C@@H](C)S(=O)(=O)NC(=O)c2ccc3c(c2)N(C[C@@H]2CCN21)C[C@@]1(CCCc2cc(Cl)ccc21)CO3 [Compound 37] | 253 | 0.45 | 
6 | C[C@@H]1[C@@H](C)C/C=C(\F)C(CO)(CO)N2CCC[C@H]2CN2C[C@@]3(CCCc4cc(Cl)ccc43)COc3ccc(cc32)C(=O)NS1(=O)=O [Compound 35] | 547 | 0.14 | 
7 | C[C@@H]1[C@@H](C)C/C=C(\F)[C@H](COCCCN2CCOCC2)N2CCC[C@H]2CN2C[C@@]3(CCCc4cc(Cl)ccc43)COc3ccc(cc32)C(=O)NS1(=O)=O [Compound 34] | 458 | 0.21 | 
8 | COCCOCC1(CO)/C(F)=C/C[C@H](C)[C@@H](C)S(=O)(=O)NC(=O)c2ccc3c(c2)N(C[C@@H]2CCN21)C[C@@]1(CCCc2cc(Cl)ccc21)CO3 (single isomer, unassigned) [Compound 42] |  | 0.9 | 730
